Measured values as given in US20120220455A1, “Azolylmethyloxiranes, Their Use for Controlling Phytopathogenic Fungi and Compositions Comprising Them” (BASF SE, priority 2006, published 2012).

System: Alternaria solani
Assay: Efficacy against early blight of tomato caused by Alternaria solani (Alteso P1), greenhouse
Format: in vivo
Conditions: Comparative Example 1, potted tomato plants, visual rating after 5 days
Experimental: The active compounds were prepared separately or jointly as a stock solution comprising 25 mg of active compound which was made up to 10 ml using a mixture of acetone and/or DMSO and the emulsifier Wettol EM 31 (wetting agent having emulsifying and dispersing action based on ethoxylated alkylphenols) in a volume ratio of solvent/emulsifier of 99:1. The mixture was then made up to 100 ml with water. This stock solution was diluted with the solvent/emulsifier/water mixture described to give the concentration of active compounds stated below. Leaves of potted tomato plants were sprayed to runoff point with an aqueous suspension having the active compound concentration stated below. The next day, the leaves were inoculated with an aqueous spore suspension of Alternaria solani in a 2% biomalt solution. The plants were then placed in a water vapor-saturated chamber at temperatures between 20 and 22° C. After 5 days, the disease on the untreated but infected control plants had developed to such an extent that the infection could be determined visually in %. […]

SMILES	Infection in % at 63 ppm for Alteso P1 [%]
COc1ccc(C2(Cn3cncn3)OC2c2ccccc2Cl)cc1 (centres unmarked) [As described in EP-A 0 196 038]	90
COc1ccc([C@@]2(Cn3cncn3)O[C@@H]2c2ccccc2Cl)c(F)c1 (racemic) [Compound 14.10]	5
